Test results reported in article PMC8480901 (PLoS ONE, 2021).
“And” between values parts separate entries of the source, which are not always exact repeats. Identical values can stand only once.

Tests used:
[1] = tested on: IL-8–activated human neutrophils; test: Chemotaxis of IL-8–activated human neutrophils (transwell, CellTiter Glo); assay type: cell-based; conditions: for Neutrophilic chemotaxis, RLU, Mean / Neutrophilic chemotaxis: % reduction / Neutrophilic chemotaxis, RLU, single replicates: IL-8; for Neutrophilic chemotaxis, RLU, single replicates: listed as Ref
Description: Buffy coat (blood sample fraction comprising white blood cells and platelets) from whole blood was obtained from a healthy adult volunteer at the Croatian Institute of Transfusion Medicine (CITM; Zagreb, Croatia). The CITM ethics committee approved the blood collection process, and the volunteer provided written informed consent prior to blood collection. Neutrophils were isolated from the buffy coat, an aliquot of which was used for cell counting via hematologic analyzer (X500i; Sysmex). […] The diluted buffy coat was drawn into sterile 50-mL syringes and incubated for 30 minutes at RT. Following incubation, the upper layer of leukocyte-rich plasma (35 mL) was decanted into a new sterile 50-mL conical centrifuge tube, carefully layered onto 15 mL of Lymphoprep (Axis-Shield Diagnostics, Ltd., Dundee, UK) and centrifuged at 400×g (brake turned off) for 35 minutes at RT. The supernatant and mononuclear ring were discarded, and the pellet was resuspended in 10 mL of cold sterile MilliQ water. […] Resuspended neutrophils were counted via Sysmex X500i hematologic analyzer.
All test compounds were reconstituted in DMSO (Sigma-Aldrich Chemie GmbH) to 100-mM stock concentrations, taking into consideration and correcting for salt and purity. A 30-mM stock solution of reference compound Sch527123 (MedChemExpress, Monmouth Junction, NJ, USA) was diluted to 10 mM with DMSO.
DMSO was used as vehicle. […] The reference compound was tested at concentrations of 0.003, 0.01, 0.03, 0.1, 0.3, 1, 3, and 10 μM. All compounds were tested in triplicate, and the final DMSO concentration was 0.1% per well.
Test and reference compound working solutions were then added (20 μL/well) for a 10-fold dilution to final testing concentrations. Compounds and cells were mixed by gentle pipetting, and the plate was pre-incubated for 30 minutes at RT with gentle mixing by pipetting.
Negative control wells received 180 μL of migration medium alone. To all wells, 20 μL of compound working solutions or DMSO vehicle was added. Once pre-incubation of cells with compounds was complete, the transwell inserts were carefully placed on the receiver plate, with caution to avoid air bubble formation, which could prevent cell migration. To the upper wells, 75 μL of cell suspension (375,000 cells/well) was added, taking care not to tear the membrane with pipette tips.
After incubation, the number of cells that migrated to the lower wells was quantified by removing the Transwell insert and adding 200 μL of CellTiter Glo reagent (CellTiter-Glo Luminescent Cell Viability Assay, Promega, Madison, WI, USA) to each lower well to quantify the amount of adenosine triphosphate (ATP) present, signaling the presence of metabolically active cells. The plate was incubated for 10 minutes in the dark at RT, followed by transferring 150 μL of solution into wells of a white 96-well plate (Lumitrac 200; Greiner Bio-One International GmbH, Kremsmunster, Austria).
For the chemotaxis and cytotoxicity evaluations, average relative light unit values were calculated from all untreated vehicle samples and, for each sample, percentage of vehicle value was calculated. The tested compound was considered cytotoxic if reduction from untreated vehicle was ≥20%.

[2] = tested on: methicillin-resistant Staphylococcus aureus wound infection; design: method as in PMID 32079232; conditions: MRSA wound infection mouse model; cited from earlier work
[3] = tested on: LPS-induced acute lung injury; conditions: cited from earlier work
[4] = tested on: murine RAW 264.7 macrophages; conditions: cited from earlier work

**Q.** Which “IL-8–induced chemotaxis of human neutrophils” value ([1]; 0.003 to 10 μM) does the source give for `CC[C@@H](Nc1c(Nc2cccc(C(=O)N(C)C)c2O)c(=O)c1=O)c1ccc(C)o1` [Sch527123] here?
**A.** dose-dependent inhibition

**Q.** And the “Neutrophilic chemotaxis, RLU, Mean” value ([1]; 0.003 µM)?
**A.** 136013 RLU

**Q.** And the “Neutrophilic chemotaxis: % reduction” value ([1]; 0.003 µM)?
**A.** -2.55%

**Q.** What about the “Neutrophilic chemotaxis, RLU, single replicates” value ([1]; 0.003 µM) of the same compound?
**A.** 126680 RLU and 141280 RLU and 140080 RLU

**Q.** And the “Neutrophilic chemotaxis, RLU, Mean” value ([1]; 0.01 µM)?
**A.** 145907 RLU

**Q.** What about the “Neutrophilic chemotaxis: % reduction” value ([1]; 0.01 µM) of the same compound?
**A.** -11%

**Q.** What about the “Neutrophilic chemotaxis, RLU, single replicates” value ([1]; 0.01 µM) of the same compound?
**A.** 164560 RLU and 147560 RLU and 125600 RLU

**Q.** What about the “Neutrophilic chemotaxis, RLU, Mean” value ([1]; 0.03 µM) of the same compound?
**A.** 131720 RLU

**Q.** And the “Neutrophilic chemotaxis: % reduction” value ([1]; 0.03 µM)?
**A.** 1.09%

**Q.** What about the “Neutrophilic chemotaxis, RLU, single replicates” value ([1]; 0.03 µM) of the same compound?
**A.** 131800 RLU and 131640 RLU

**Q.** And the “Neutrophilic chemotaxis, RLU, Mean” value ([1]; 0.1 µM)?
**A.** 87493 RLU

**Q.** And the “Neutrophilic chemotaxis: % reduction” value ([1]; 0.1 µM)?
**A.** 39%

**Q.** What about the “Neutrophilic chemotaxis, RLU, single replicates” value ([1]; 0.1 µM) of the same compound?
**A.** 83280 RLU and 83800 RLU and 95400 RLU

**Q.** And the “Neutrophilic chemotaxis, RLU, Mean” value ([1]; 0.3 µM)?
**A.** 34307 RLU

**Q.** And the “Neutrophilic chemotaxis: % reduction” value ([1]; 0.3 µM)?
**A.** 84%

**Q.** What about the “Neutrophilic chemotaxis, RLU, single replicates” value ([1]; 0.3 µM) of the same compound?
**A.** 34560 RLU and 36480 RLU and 31880 RLU

**Q.** What about the “Neutrophilic chemotaxis, RLU, Mean” value ([1]; 1 µM) of the same compound?
**A.** 20080 RLU

**Q.** And the “Neutrophilic chemotaxis: % reduction” value ([1]; 1 µM)?
**A.** 96%

**Q.** What about the “Neutrophilic chemotaxis, RLU, single replicates” value ([1]; 1 µM) of the same compound?
**A.** 21040 RLU and 22120 RLU and 17080 RLU

**Q.** What about the “Neutrophilic chemotaxis, RLU, Mean” value ([1]; 3 µM) of the same compound?
**A.** 18067 RLU

**Q.** And the “Neutrophilic chemotaxis: % reduction” value ([1]; 3 µM)?
**A.** 97%

**Q.** What about the “Neutrophilic chemotaxis, RLU, single replicates” value ([1]; 3 µM) of the same compound?
**A.** 19800 RLU and 19160 RLU and 15240 RLU

**Q.** What about the “Neutrophilic chemotaxis, RLU, Mean” value ([1]; 10 µM) of the same compound?
**A.** 19573 RLU

**Q.** What about the “Neutrophilic chemotaxis: % reduction” value ([1]; 10 µM) of the same compound?
**A.** 96%

**Q.** What about the “Neutrophilic chemotaxis, RLU, single replicates” value ([1]; 10 µM) of the same compound?
**A.** 21800 RLU and 20760 RLU and 16160 RLU

**Q.** With `C=C[C@]1(C)C[C@@H](OC(=O)CSc2ccccc2N)[C@]2(C)[C@H](C)CC[C@]3(CCC(=O)[C@H]32)[C@@H](C)[C@@H]1O` [amphenmulin, 22-(2-amino-phenylsulfanyl)-22-deoxypleuromutilin] as the compound, how does the “TNF-α, IL-6, and CCL-2 serum levels” value [2] read?
**A.** significantly reduced

**Q.** For `CC[C@H]1OC(=O)[C@H](C)[C@@H](O[C@H]2C[C@@](C)(OC)[C@@H](O)[C@H](C)O2)[C@H](C)[C@@H](O[C@@H]2O[C@H](C)C[C@H](N(C)C)[C@H]2O)[C@](C)(OC)C[C@@H](C)C(=O)[C@H](C)[C@@H](O)[C@]1(C)O` [clarithromycin], which neutrophil recruitment ([3]; pretreatment in LPS-induced acute lung injury models) is on record?
**A.** significantly reduced

**Q.** Which “LPS-induced pulmonary edema, accumulation of inflammatory cells in BALF, and increased inflammatory cytokines (eg, TNF-α and IL-6)” value ([3]; pretreated mice vs no-treatment control group) does the source give for `C=C[C@]1(C)C[C@@H](OC(=O)CSC(C)(C)CNC(=O)[C@H](N)C(C)C)[C@]2(C)[C@H](C)CC[C@]3(CCC(=O)[C@H]32)[C@@H](C)[C@@H]1O` [valnemulin] here?
**A.** significantly attenuated

**Q.** And the “LPS-induced production of inflammatory mediators, including nitric oxide, prostaglandin E2, TNF-α, and IL-6” value [4]?
**A.** significantly inhibited
